# Assay results: patent US9433608B2 (priority 2013, dated 2016)
# Experiments:
# Conditions in all cases: in vivo
# [1] = test system: TIA (transient ischemic attack) symptoms
# [2] = test system: 12 mm right basal ganglia infarct (acute lacunar infarct); design: species or system human
# [3] = test system: subacute temporal lobe infarct with encephalomalacia; design: species or system human
Compound,clinical state the next day [1],effect on penumbra of injury [1],sedation (side effect) on the second night [1],swallowing on the second night [1],function after treatment [2],"leg weakness, expansion of the infarct, symptoms [2]",mental clarity noted by the patient [3],vision in the right hemifield [3]
"Cc1ncc2n1-c1ccc(Cl)cc1C(c1ccccc1F)=NC2 [midazolam, 8-chloro-6-(2-fluorophenyl)-1-methyl-4H-imidazo[1,5a][1,4]benzodiazepine]","sitting talking to relatives, mentating better but could not swallow their own saliva",preventing expansion of the penumbra of injury,drowsy,could swallow their own saliva,–,–,–,–
"CN1C(=O)CN=C(c2ccccc2)c2cc(Cl)ccc21 [diazepam, 7-chloro-1,3-dihydro-1-methyl-5-phenyl-1,4-benzodiazepin-2(3H)-one]",–,–,–,–,returned to pre-stroke function,the weakness resolved and there was no further expansion of the infarct or worsening of symptoms,clearing of fogginess,unable to regain vision in the right hemifield
"CC12CC3CC(C)(C1)CC(N)(C3)C2 [memantine, 3,5-dimethyladamantan-1-amine]",–,–,–,–,returned to pre-stroke function,the weakness resolved and there was no further expansion of the infarct or worsening of symptoms,clearing of fogginess,unable to regain vision in the right hemifield
